{
  "source": "patent US20050043262A1",
  "about": "“Novel specific inhibitor of the cyclin kinase inhibitor p21Waf1/Cip1 and methods of using the inhibitor” (priority 2000, published 2005)",
  "format_in_all_cases": "cell-based, rat",
  "key": {"A10 VSM cells [1]": {"test_system": "A10 VSM cells", "assay": "Cell proliferation by counting adherent cells", "details": "after 18 hours of PDGF incubation", "text": "Cell culture, DNA synthesis, and proliferation assays: Cultures of both A10 and A7r5 rat aortic VSM cells were obtained from American Type Culture Collection (Rockville Md.). Bovine aortic smooth muscle cells were supplied by Martha O'Donnell (O'Donnell and Owen, 1986 Proc Natl. Acad. Sci.US.A., 83, p. 6132-6136). All of the cell lines were maintained as described (Weiss et al., 1998 Am. J. Physiol., 274, p. C1521-C1529) and were used between passages 15 and 25. The cells were growth-arrested by placing them in serum-free quiescence medium, exposed to growth factors as indicated, and [^3H]thymidine incorporation assessed as previously described (Weiss and Nuccitelli, 1992a J. Biol. Chem., 267, p. 5608-5613). Cell proliferation was assessed by counting of adherent cells on 4 representative fields under 100× magnification in each of 3 wells per experimental condition.\nAntisense techniques were employed to examine the dependence of G1-phase progression on p21^Waf1/Cip1 in the VSM cell lines (Crooke, 1993 Antisense research and applications. Boca Raton, CRC.). […] DNA synthesis was assessed by [^3H]-thymidine incorporation and is expressed as mean ± s.e.m. of three wells per data point. […] After 18 hours of PDGF incubation, the cells were counted by examining representative fields at 100× magnification. The average number of cells in 4 random fields in each well was determined."}, "laminin": {"test_system": "laminin", "assay": "Laminin production and secretion (immunoblot of lysate and conditioned media)", "details": "VSM cells, 400 nM, TGF-β 0.1 to 10 ng/ml for 4 hours", "protocol": "Western blots: Cells were grown to confluence in 6 cm culture dishes and serum deprived. After transfection and/or treatment with appropriate agonist, conditioned medium was removed and saved and the cells were washed with phosphate-buffered saline and lysed in lysis buffer. Both supernatant and cell lysate were normalized to the lysate protein concentrations and Western blotted as described (Weiss, R. H.; et al. Am. J. Physiol. 274: C1521-C1529; 1998).\nThe p21 influences on matrix protein secretion in VSM cells were determined. Levels of the matrix proteins laminin and fibronectin were examined in both TGF-β stimulated lysate and conditioned media of cells in which p21 expression had been attenuated. The cells were transfected with either antisense p21 (SEQ. ID NO.:1) (400 nM), or random sequence control (SEQ. ID NO.:3) (400 nM) oligodeoxynucleotide, and then stimulated with TGF-β at for 0.1 to 10 ng/ml for 4 hours. Conditioned media and cell lysate were collected, and both medium and lysate volumes were normalized for the protein content in total cell lysate to exclude any skewing of the data due to cell proliferation. The proteins were electrophoresed and immunoblotted with either fibronectin (after immunoprecipitation to eliminate extraneous bands which appeared in the absence of this procedure) or laminin antibody."}, "A10 VSM cells [2]": {"test_system": "A10 VSM cells", "assay": "[3H]thymidine incorporation (DNA synthesis) in A10 VSM cells"}, "VSM cells": {"test_system": "VSM cells", "assay": "Apoptosis by Hoechst 33258 staining in VSM cells", "details": "24 hours after transfection", "protocol": "FIG. 20A-D show how the antisense oligonucleotide to p21 induces VSM cell apoptosis, as described in Example III, infra. VSM cells were grown on glass cover slips and transfected with (A,B) random sequence control oligonucleotide to p21 or (C,D) antisense oligonucleotide. 24 hours later, the cells were fixed and stained in situ with Hoechst 33258. Representative microscopic fields were photographed under (A,C) visual or (B,D) UV light at 40×.\nApoptosis assays: Cells were grown on collagen-coated coverslips, and transfected as stated above. 16-24 hours after transfection, cells were exposed to 12 Gy dose of γ-irradiation or 0.5 μM wortmannin. 24 hours later, cells were fixed in 3.7% formaldehyde (diluted in PBS) for 10 minutes. The cells were rinsed with cold PBS and permeabilized using 0.1% Triton X-100 (diluted in deionized water) for 5 minutes. Rinsed again with PBS, the cells on the coverslips were submerged in Hoechst Staining solution (3.0 μl in 37.5 ml deionized water) for 5 minutes. Cells were given a final three rinses with cold PBS before being mounted in polyvinyl alcohol mounting medium. Cell nuclei were visualized using a ZEISS WL Microscope and photographed under 40×.\nAs another measure of apoptosis, transfected cells fixed and stained with Hoechst 33258 were examined."}, "fibronectin": {"test_system": "fibronectin", "assay": "Fibronectin production and secretion (immunoprecipitation/immunoblot)", "details": "VSM cells, 400 nM, TGF-β 0.1 to 10 ng/ml", "protocol": "Immunoprecipitations: VSM cells were grown to confluence. After incubation under appropriate conditions, the cells were washed with ice-cold phosphate-buffered saline and immediately lysed in lysis buffer (20 mM Tris [pH7.5], 150 mM NaCl, 1 mM EDTA, 1 mM EGTA, 1% Triton X-100, 2.5 mM sodium pyrophosphate, 1 mM β-glycerolphosphate, 1 mM Na3VO4, 1 μg/ml Leupeptin, 1 mM PMSF) at 4° C. The cells were scraped off with a rubber spatula and the insoluble material removed by centrifuging at 10,000× g for 10 min at 4° C. Protein concentration was determined by A595, and lysates containing equal amounts of protein were incubated with […] anti-fibronectin antibody at 4° C. overnight. Protein A-Sepharose beads were added and the resulting mixture was incubated for an additional 2 hours at 4° C. The beads were centrifuged in a microfuge for 20 sec, and the pellet was washed 3 times with cold lysis buffer. The supernatant was decanted, gel loading buffer was added to the precipitate, and the solution was boiled for 5 min, and centrifuged. The supernatant was electrophoresed on a 7.5% SDS-polyacrylamide gel with equal volumes of sample per lane. The proteins were electrophoretically transferred to nitrocellulose and probed with fibronectin antibody.\nThe p21 influences on matrix protein secretion in VSM cells were determined. […]"}},
  "data": [
    {"substance": "5′-GACATCACCAGGATCGGACAT-3′", "values": [
      {"measurement": "cell number / cell proliferation", "setting": "A10 VSM cells [1]", "value": "parallel the alterations in DNA synthesis"},
      {"measurement": "cell number / cell proliferation", "setting": "A10 VSM cells [1]; listed as antisense p21^Waf1/Cip1 oligodeoxynucleotide", "value": "inhibited"},
      {"measurement": "production and secretion of laminin", "setting": "laminin", "value": "markedly reduced"},
      {"measurement": "PDGF-stimulated DNA synthesis", "setting": "A10 VSM cells [2]; A10 VSM cells, 200 nM oligodeoxynucleotide lipofected, PDGF-BB 30 ng/ml 18 hours", "value": "Significant inhibition"},
      {"measurement": "DNA synthesis relative to control oligodeoxynucleotide", "setting": "A10 VSM cells [2]; A10 VSM cells, 10% serum", "value": "markedly inhibited"},
      {"measurement": "PDGF-stimulated DNA synthesis, dose/response", "setting": "A10 VSM cells [2]; A10 VSM cells, increasing oligodeoxynucleotide concentration up to 200 nM", "value": "inhibition of DNA synthesis with increasing concentration"},
      {"measurement": "effects of irradiation on cell cycle arrest (DNA synthesis)", "setting": "A10 VSM cells [2]; VSM cells, 1 to 12 Gy, maximum potentiation at 8 Gy", "value": "potentiated at higher doses of radiation"},
      {"measurement": "potentiation of irradiation effect at 12 Gy", "setting": "A10 VSM cells [2]; VSM cells, 12 Gy", "value": "did not reach statistical significance"},
      {"measurement": "potentiation of Adriamycin growth inhibition", "setting": "A10 VSM cells [2]; VSM cells, 1000 to 2000 ng/ml Adriamycin", "value": "significant potentiation"},
      {"measurement": "cell growth (DNA synthesis) stimulated with PDGF-BB and serum", "setting": "A10 VSM cells [2]; VSM cells, similar oligodeoxynucleotide concentrations (FIG. 9d)", "value": "inhibited"},
      {"measurement": "DNA synthesis in non-irradiated cells", "setting": "A10 VSM cells [2]; confluent VSM cells in serum-containing medium", "value": "marked inhibition"},
      {"measurement": "apoptotic changes (Hoechst 33258)", "setting": "VSM cells", "value": "extensive apoptotic changes"},
      {"measurement": "TGF-β-mediated fibronectin production and secretion", "setting": "fibronectin", "value": "decreases"}
    ]}
  ]
}
